1 compound from US5985834A, “Nova- and decapeptides in the preparation of a drug for the treatment of aids” (ASTA Medica AG, priority 1993, dated 1999) can be followed below.

The test has as its system HIV virus. In words: Screening method for anti-HIV activity (NCI AIDS screening trial, XTT formazan, protection of virus-infected T4 lymphocytes). The note with it: Human immunodeficiency virus 1, CCRF-CEM, infected culture treated, CEM cells, 6-7 days. Format: cell-based. As for the experimental part:
Description of the Screening Method for Anti-HIV Activity
The process is suitable for locating active substances which are effective in all phases of the virus proliferation cycle. The test principle is based on the destruction of the T4 lymphocytes by the HIV virus.
Small amounts of HIV virus are added to the cell cultures. At least two complete viral reproduction cycles are needed to destroy the T4 lymphocytes and to be able to evaluate the results.
Active substances that react with virions (virus-like particles), cells or with products of the viral genes in order to interact with viral activities and thus block proliferation of the viruses will protect the cells from destruction and lysis.
The test system is automated to permit examination of a large number of cells infected with viruses. Compounds which degenerate, denaturise or that are rapidly metabolised cannot, however, be reliably discovered using the test procedure.
AZT (azidothymidine) and DDC serve as positive controls for the test.
1. T4 lymphocytes (CEM cell line) are mixed with virus in the ratio of virus:cell of ca. 1:0.05 in microtiter plates.
2. […]
5. The individual cell cultures are analysed spectrophotometrically and examined microscopically to detect surviving cells in order to confirm the protective effect. […]
7. The activity of the tested compound is determined. […]
Background: Tetrazolium dyes change colour on reduction, which living cells bring about.

As a reminder, the EC50 is the concentration at which the effect is half-maximal. Low values mean an effect from little substance, high ones a need for much substance.

Turning to `Cc1cn([C@H]2C[C@H](N=[N+]=[N-])[C@@H](CO)O2)c(=O)[nH]c1=O` [AZT, 3'-azido-3'-desoxythymidine], the concentration giving a half-maximal response (EC50) stood at 3.1 nM. This counts as single-digit nanomolar.
